Literature values, collected in patent US7501533B2, “Process for preparing lysophosphatidylcholine” (Chem SpA, priority 2004, dated 2009).

Test system: rats
Details: from Sax and others, Dangerous Properties of Industrial Materials, edition VII

CCCCCCC[CH2][Sn](=[O])[CH2]CCCCCCC [dioctyltin oxide]
LD50 (acute oral toxicity): LD50 = 2500 mg/kg

CCC[CH2][Sn](=[O])[CH2]CCC [dibutyltin oxide]
LD50 (acute oral toxicity): LD50 = 44.9 mg/kg
